± gives the expanded uncertainty stated by the source.
Experiment: xn = mol fraction of the nth substance listed
Settings: Liquid, Falling body viscometer

COCCOCCOCCOCCOC [2,5,8,11,14-pentaoxapentadecane] + FCC(F)(F)F
viscosity [mPa·s]
Settings | 10000 kPa | 20000 kPa | 30000 kPa | 40000 kPa | 50000 kPa | 60000 kPa | 70000 kPa | 80000 kPa | 90000 kPa | 100000 kPa
293.15 K, x2 = 0.2769 | 3.132 ± 0.044 | 3.378 ± 0.047 | 3.669 ± 0.051 | 3.992 ± 0.055 | 4.341 ± 0.06 | 4.71 ± 0.066 | 5.095 ± 0.071 | 5.495 ± 0.077 | 5.907 ± 0.082 | 6.329 ± 0.088
293.15 K, x2 = 0.4433 | 2.335 ± 0.032 | 2.537 ± 0.035 | 2.765 ± 0.038 | 3.014 ± 0.041 | 3.282 ± 0.045 | 3.568 ± 0.049 | 3.871 ± 0.054 | 4.191 ± 0.058 | 4.527 ± 0.063 | 4.877 ± 0.068
293.15 K, x2 = 0.6333 | 1.514 ± 0.02 | 1.679 ± 0.022 | 1.851 ± 0.024 | 2.031 ± 0.027 | 2.219 ± 0.029 | 2.414 ± 0.032 | 2.617 ± 0.035 | 2.827 ± 0.037 | 3.045 ± 0.04 | 3.269 ± 0.043
293.15 K, x2 = 0.8797 | 0.557 ± 0.007 | 0.613 ± 0.007 | 0.671 ± 0.008 | 0.733 ± 0.009 | 0.796 ± 0.01 | 0.863 ± 0.01 | 0.932 ± 0.011 | 1.003 ± 0.012 | 1.077 ± 0.013 | 1.154 ± 0.014
313.15 K, x2 = 0.2769 | 2.001 ± 0.03 | 2.197 ± 0.033 | 2.395 ± 0.036 | 2.601 ± 0.039 | 2.816 ± 0.043 | 3.043 ± 0.046 | 3.282 ± 0.05 | 3.535 ± 0.054 | 3.803 ± 0.059 | 4.088 ± 0.063
313.15 K, x2 = 0.4433 | 1.527 ± 0.022 | 1.674 ± 0.024 | 1.824 ± 0.027 | 1.978 ± 0.029 | 2.14 ± 0.032 | 2.31 ± 0.034 | 2.49 ± 0.037 | 2.68 ± 0.041 | 2.881 ± 0.044 | 3.094 ± 0.048
313.15 K, x2 = 0.6333 | 1.046 ± 0.014 | 1.151 ± 0.016 | 1.26 ± 0.017 | 1.374 ± 0.019 | 1.493 ± 0.021 | 1.616 ± 0.023 | 1.745 ± 0.025 | 1.878 ± 0.027 | 2.016 ± 0.029 | 2.159 ± 0.031
313.15 K, x2 = 0.8797 | 0.412 ± 0.005 | 0.46 ± 0.006 | 0.506 ± 0.006 | 0.553 ± 0.007 | 0.6 ± 0.007 | 0.647 ± 0.008 | 0.695 ± 0.009 | 0.744 ± 0.009 | 0.794 ± 0.01 | 0.845 ± 0.011
333.15 K, x2 = 0.2769 | 1.406 ± 0.019 | 1.533 ± 0.021 | 1.664 ± 0.023 | 1.8 ± 0.025 | 1.941 ± 0.027 | 2.086 ± 0.029 | 2.236 ± 0.031 | 2.391 ± 0.034 | 2.549 ± 0.036 | 2.712 ± 0.039
333.15 K, x2 = 0.4433 | 1.097 ± 0.014 | 1.195 ± 0.016 | 1.297 ± 0.017 | 1.402 ± 0.019 | 1.512 ± 0.02 | 1.624 ± 0.022 | 1.741 ± 0.023 | 1.861 ± 0.025 | 1.984 ± 0.027 | 2.111 ± 0.029
333.15 K, x2 = 0.6333 | 0.774 ± 0.01 | 0.845 ± 0.011 | 0.922 ± 0.012 | 1.003 ± 0.013 | 1.087 ± 0.014 | 1.173 ± 0.015 | 1.26 ± 0.016 | 1.349 ± 0.017 | 1.438 ± 0.019 | 1.529 ± 0.02
333.15 K, x2 = 0.8797 | 0.321 ± 0.004 | 0.364 ± 0.004 | 0.405 ± 0.005 | 0.444 ± 0.005 | 0.483 ± 0.006 | 0.522 ± 0.006 | 0.561 ± 0.006 | 0.6 ± 0.007 | 0.64 ± 0.007 | 0.681 ± 0.008
353.15 K, x2 = 0.2769 | 1.038 ± 0.013 | 1.133 ± 0.015 | 1.229 ± 0.016 | 1.328 ± 0.017 | 1.431 ± 0.018 | 1.539 ± 0.02 | 1.653 ± 0.021 | 1.773 ± 0.022 | 1.9 ± 0.024 | 2.035 ± 0.026
353.15 K, x2 = 0.4433 | 0.834 ± 0.01 | 0.908 ± 0.011 | 0.984 ± 0.012 | 1.064 ± 0.013 | 1.147 ± 0.014 | 1.233 ± 0.015 | 1.323 ± 0.016 | 1.415 ± 0.017 | 1.51 ± 0.019 | 1.609 ± 0.02
353.15 K, x2 = 0.6333 | 0.609 ± 0.007 | 0.665 ± 0.008 | 0.725 ± 0.009 | 0.788 ± 0.009 | 0.854 ± 0.01 | 0.921 ± 0.011 | 0.99 ± 0.012 | 1.061 ± 0.013 | 1.132 ± 0.013 | 1.205 ± 0.014
353.15 K, x2 = 0.8797 | 0.256 ± 0.003 | 0.299 ± 0.004 | 0.336 ± 0.004 | 0.37 ± 0.004 | 0.404 ± 0.005 | 0.436 ± 0.005 | 0.469 ± 0.005 | 0.501 ± 0.006 | 0.533 ± 0.006 | 0.565 ± 0.006
373.15 K, x2 = 0.2769 | 0.832 ± 0.01 | 0.907 ± 0.011 | 0.986 ± 0.012 | 1.069 ± 0.013 | 1.156 ± 0.014 | 1.247 ± 0.015 | 1.342 ± 0.016 | 1.441 ± 0.018 | 1.545 ± 0.019 | 1.654 ± 0.02
373.15 K, x2 = 0.4433 | 0.662 ± 0.008 | 0.72 ± 0.009 | 0.783 ± 0.01 | 0.85 ± 0.01 | 0.921 ± 0.011 | 0.994 ± 0.012 | 1.069 ± 0.013 | 1.147 ± 0.014 | 1.226 ± 0.015 | 1.307 ± 0.016
373.15 K, x2 = 0.6333 | 0.471 ± 0.006 | 0.524 ± 0.007 | 0.577 ± 0.007 | 0.631 ± 0.008 | 0.685 ± 0.008 | 0.739 ± 0.009 | 0.794 ± 0.01 | 0.849 ± 0.01 | 0.904 ± 0.011 | 0.96 ± 0.012
373.15 K, x2 = 0.8797 | 0.195 ± 0.003 | 0.234 ± 0.003 | 0.268 ± 0.003 | 0.3 ± 0.004 | 0.33 ± 0.004 | 0.36 ± 0.004 | 0.39 ± 0.005 | 0.419 ± 0.005 | 0.448 ± 0.005 | 0.478 ± 0.005
